The source of these data is BindingDB's records for PubMed 20126400 (University of Oklahoma, 2010).

Holding throughout (test): Ray2010 Assay 74
For experiment [1], the target named is Sigma non-opioid intracellular receptor 1 (Homo sapiens, UniProt Q99720). The source says: (§1) Table S2 shows raw Ki data for the current study combined with data collected from the literature for the ten additional compounds.
Experiment [2] concerns the target T1, Alpha-1B adrenergic receptor (Homo sapiens, UniProt P35368).
T1 sequence (P35368 whole entry): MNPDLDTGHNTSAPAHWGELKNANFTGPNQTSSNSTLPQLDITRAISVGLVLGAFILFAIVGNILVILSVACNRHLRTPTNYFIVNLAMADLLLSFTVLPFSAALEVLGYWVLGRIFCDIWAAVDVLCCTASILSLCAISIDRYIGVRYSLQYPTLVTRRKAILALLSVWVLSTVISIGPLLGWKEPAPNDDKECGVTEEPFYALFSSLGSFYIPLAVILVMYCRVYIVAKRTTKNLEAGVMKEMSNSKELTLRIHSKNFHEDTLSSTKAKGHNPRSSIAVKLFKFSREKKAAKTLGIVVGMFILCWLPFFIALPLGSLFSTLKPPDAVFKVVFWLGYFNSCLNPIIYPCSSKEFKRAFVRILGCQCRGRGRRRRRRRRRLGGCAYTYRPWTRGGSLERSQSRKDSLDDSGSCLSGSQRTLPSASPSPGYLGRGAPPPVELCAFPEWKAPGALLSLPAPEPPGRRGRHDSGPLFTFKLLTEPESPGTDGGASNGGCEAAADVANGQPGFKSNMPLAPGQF
Source text: as §1

In experiment [3] the target is Sigma intracellular receptor 2 (Homo sapiens, UniProt Q5BJF2).
Source text: as §1

Experiment [4] deals with T2, Alpha-2C adrenergic receptor (Homo sapiens, UniProt P18825).
T2 sequence (P18825 whole entry): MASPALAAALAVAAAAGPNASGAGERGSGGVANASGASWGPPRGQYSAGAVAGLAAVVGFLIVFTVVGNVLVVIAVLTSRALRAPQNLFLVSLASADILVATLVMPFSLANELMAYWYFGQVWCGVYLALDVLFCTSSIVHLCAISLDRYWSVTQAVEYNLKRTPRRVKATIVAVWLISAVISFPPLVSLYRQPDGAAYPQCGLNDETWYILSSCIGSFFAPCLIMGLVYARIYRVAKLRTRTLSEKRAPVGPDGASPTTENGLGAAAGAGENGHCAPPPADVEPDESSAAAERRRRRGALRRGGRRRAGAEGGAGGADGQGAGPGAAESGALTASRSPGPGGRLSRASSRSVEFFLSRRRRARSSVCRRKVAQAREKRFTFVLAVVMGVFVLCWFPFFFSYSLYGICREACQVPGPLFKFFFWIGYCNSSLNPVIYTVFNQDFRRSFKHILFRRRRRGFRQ
Source text: as §1

The target in the next experiment is Nischarin (Homo sapiens, UniProt Q9Y2I1).
Source text: as §1

Experiment [5] deals with T3, Gamma-aminobutyric acid receptor subunit alpha-1/Adenosine receptor A1 (Homo sapiens, UniProt P14867+P30542).
T3 sequence (P30542 whole entry): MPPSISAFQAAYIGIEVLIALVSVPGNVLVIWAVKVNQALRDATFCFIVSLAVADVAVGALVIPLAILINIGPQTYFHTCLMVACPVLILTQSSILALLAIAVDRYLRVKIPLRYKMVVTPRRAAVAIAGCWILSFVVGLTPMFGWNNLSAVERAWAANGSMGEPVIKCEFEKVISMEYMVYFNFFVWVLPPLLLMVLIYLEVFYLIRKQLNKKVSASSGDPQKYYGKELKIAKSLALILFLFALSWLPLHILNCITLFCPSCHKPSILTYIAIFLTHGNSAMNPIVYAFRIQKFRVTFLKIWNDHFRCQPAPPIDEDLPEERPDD
T3 sequence (P14867 whole entry): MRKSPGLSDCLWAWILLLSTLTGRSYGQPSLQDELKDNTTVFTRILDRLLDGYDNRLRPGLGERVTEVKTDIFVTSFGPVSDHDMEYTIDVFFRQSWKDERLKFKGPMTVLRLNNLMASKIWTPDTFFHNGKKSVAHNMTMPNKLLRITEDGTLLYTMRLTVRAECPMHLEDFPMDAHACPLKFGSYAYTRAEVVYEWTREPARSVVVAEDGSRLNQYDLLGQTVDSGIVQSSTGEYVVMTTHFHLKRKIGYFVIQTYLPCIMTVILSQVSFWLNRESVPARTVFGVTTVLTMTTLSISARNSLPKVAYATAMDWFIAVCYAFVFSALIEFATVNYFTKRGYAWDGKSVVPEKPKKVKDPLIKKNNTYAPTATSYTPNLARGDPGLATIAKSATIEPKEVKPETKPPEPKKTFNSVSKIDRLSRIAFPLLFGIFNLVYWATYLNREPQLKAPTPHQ
Source text: as §1

The target of experiment [6] is T4, Muscarinic acetylcholine receptor M4 (Homo sapiens, UniProt P08173).
T4 sequence (P08173 whole entry): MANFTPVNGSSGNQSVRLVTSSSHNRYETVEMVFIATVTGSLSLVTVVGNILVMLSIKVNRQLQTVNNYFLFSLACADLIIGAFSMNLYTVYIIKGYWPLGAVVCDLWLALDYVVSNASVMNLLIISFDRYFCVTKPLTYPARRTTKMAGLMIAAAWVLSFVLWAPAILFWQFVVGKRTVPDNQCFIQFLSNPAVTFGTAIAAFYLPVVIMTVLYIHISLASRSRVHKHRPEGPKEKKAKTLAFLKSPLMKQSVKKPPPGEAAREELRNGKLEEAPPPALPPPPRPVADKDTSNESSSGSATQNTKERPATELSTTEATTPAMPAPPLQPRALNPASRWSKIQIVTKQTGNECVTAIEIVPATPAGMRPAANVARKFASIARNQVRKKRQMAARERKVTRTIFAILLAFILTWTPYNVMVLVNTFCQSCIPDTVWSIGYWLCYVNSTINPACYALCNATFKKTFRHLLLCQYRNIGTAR
Source text: as §1

The target in another experiment is T5, Vasopressin V1b receptor (Homo sapiens, UniProt P47901).
T5 sequence (P47901 whole entry): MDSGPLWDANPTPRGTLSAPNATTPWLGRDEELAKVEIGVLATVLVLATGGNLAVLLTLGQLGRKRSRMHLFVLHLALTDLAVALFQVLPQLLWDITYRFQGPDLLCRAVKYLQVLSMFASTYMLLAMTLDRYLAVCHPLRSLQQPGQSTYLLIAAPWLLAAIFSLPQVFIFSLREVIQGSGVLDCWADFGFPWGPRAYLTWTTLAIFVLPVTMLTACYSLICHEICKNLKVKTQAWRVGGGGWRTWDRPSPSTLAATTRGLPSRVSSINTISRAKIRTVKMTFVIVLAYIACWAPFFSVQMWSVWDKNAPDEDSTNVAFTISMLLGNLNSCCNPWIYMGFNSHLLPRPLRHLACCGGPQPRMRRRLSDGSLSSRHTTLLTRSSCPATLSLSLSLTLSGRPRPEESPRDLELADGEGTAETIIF
Source text: as §1

Chain of Sigma non-opioid intracellular receptor 1 (Q99720 whole entry): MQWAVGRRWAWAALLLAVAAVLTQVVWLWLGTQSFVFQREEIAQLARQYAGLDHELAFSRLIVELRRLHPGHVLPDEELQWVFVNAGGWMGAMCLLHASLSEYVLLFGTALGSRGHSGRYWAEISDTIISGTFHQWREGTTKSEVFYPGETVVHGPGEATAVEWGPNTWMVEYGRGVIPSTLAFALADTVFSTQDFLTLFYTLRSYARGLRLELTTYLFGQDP
Chain of Sigma intracellular receptor 2 (Q5BJF2 whole entry): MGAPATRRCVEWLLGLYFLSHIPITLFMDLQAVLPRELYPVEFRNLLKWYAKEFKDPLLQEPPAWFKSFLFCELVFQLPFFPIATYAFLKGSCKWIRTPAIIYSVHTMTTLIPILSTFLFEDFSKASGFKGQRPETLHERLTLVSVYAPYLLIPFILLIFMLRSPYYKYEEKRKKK
Chain of Nischarin (Q9Y2I1 whole entry): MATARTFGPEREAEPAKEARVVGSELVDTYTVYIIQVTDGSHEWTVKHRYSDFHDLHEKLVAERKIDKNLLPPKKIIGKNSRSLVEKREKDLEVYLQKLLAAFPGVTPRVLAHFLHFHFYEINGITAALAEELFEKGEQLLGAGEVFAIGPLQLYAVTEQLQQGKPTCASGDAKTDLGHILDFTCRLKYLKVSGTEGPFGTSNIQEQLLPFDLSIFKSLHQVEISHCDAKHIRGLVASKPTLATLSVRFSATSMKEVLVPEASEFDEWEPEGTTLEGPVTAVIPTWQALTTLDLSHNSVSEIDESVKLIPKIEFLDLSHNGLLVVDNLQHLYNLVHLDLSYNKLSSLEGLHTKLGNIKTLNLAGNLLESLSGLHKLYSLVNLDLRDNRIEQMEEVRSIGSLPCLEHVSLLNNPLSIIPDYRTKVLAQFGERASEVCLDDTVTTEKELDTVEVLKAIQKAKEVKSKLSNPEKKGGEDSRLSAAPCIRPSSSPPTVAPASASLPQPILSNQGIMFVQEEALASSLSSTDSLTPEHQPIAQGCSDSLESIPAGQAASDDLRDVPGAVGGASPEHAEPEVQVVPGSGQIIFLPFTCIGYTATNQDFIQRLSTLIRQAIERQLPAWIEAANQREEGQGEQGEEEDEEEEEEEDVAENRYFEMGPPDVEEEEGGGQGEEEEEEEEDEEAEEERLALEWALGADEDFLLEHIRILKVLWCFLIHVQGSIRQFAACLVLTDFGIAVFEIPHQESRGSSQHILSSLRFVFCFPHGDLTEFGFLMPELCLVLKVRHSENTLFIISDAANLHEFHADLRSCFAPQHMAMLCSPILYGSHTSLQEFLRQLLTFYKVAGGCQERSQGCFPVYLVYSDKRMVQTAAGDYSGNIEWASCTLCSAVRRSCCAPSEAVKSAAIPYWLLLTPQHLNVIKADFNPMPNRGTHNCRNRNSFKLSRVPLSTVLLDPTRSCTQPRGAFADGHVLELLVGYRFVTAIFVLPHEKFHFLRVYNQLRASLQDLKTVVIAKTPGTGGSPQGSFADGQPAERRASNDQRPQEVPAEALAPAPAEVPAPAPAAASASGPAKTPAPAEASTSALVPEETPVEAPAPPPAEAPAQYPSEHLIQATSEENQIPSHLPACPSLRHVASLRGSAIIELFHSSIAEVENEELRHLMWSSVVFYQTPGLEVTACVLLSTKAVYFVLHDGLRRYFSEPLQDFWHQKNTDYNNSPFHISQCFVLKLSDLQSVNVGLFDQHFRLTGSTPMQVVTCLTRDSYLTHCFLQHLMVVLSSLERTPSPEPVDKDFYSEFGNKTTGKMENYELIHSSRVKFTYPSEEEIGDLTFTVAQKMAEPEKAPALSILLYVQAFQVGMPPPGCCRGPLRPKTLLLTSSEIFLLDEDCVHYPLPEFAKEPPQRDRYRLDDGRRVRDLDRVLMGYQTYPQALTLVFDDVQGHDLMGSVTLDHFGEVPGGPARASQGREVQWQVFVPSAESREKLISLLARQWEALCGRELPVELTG

Usually Ki stands for a dissociation constant, usually derived from enzyme kinetics or from competition with a known ligand. Low values mean a stronger hold on the target, high ones a looser hold on the target. As for `COc1cc(CC(C)N)c(OC)cc1C` (stereo not drawn) [(+/-)2-(2,5-Dimethoxy-4-methyl-phenyl)-1-methyl-ethylamine], the Ki in experiment [1] is over 10 µM; in experiment [2], over 10 µM; in experiment [3] it was over 10 µM; in experiment [4], 0.921 µM; on Nischarin, over 10 µM.

Turning to `COc1ccc2[nH]cc(CCN(C)C)c2c1` [3-(2-DIMETHYLAMINOETHYL)-5-METHOXYINDOLE], the Ki in experiment [1] was over 10 µM; in experiment [2] it was over 10 µM; in experiment [5], over 10 µM; in experiment [3], over 10 µM; in experiment [4], 0.508 µM; at Nischarin, 2.5 µM. Besides, the Ki in experiment [6] is over 10 µM.

As for `NCCc1c2c(c(Br)c3c1OCC3)OCC2` [2-(8-Bromo-2,3,6,7-tetrahydro-benzo[1,2-b;4,5-b']difuran-4-yl)-ethylamine], the Ki in experiment [1] was over 10 µM; in experiment [2] it was over 10 µM; in experiment [3], over 10 µM; in experiment [4], 0.233 µM; on Nischarin, over 10 µM; in experiment [6] it was 0.52 µM.

For `COc1cc(CC(C)N)cc(OC)c1OC` (stereo unspecified), the Ki was 0.536 µM in experiment [1]; over 10 µM in experiment [2]; 0.536 µM in experiment [3]; 5.01 µM in experiment [4]; over 10 µM on Nischarin.

For the molecule `CC(N)Cc1ccc2c(c1)OCO2` (stereo unspecified), the Ki in experiment [2] was over 10 µM; in experiment [5], over 10 µM; in experiment [4], 0.229 µM; on Nischarin, over 10 µM.

Consider `C[C@@H]1C[C@H](C)N1C(=O)C1C=C2c3cccc4[nH]cc(c34)C[C@H]2N(C)C1` (stereo partly drawn) [cis-2a], for which the Ki (on Vasopressin V1b receptor; in experiment [2]) was over 10 µM in each case.

With `CC[C@H]1C[C@@H]2C[C@H]3c4[nH]c5ccc(OC)cc5c4CCN(C2)[C@@H]13`, the Ki was 5.84 µM in experiment [1] and 0.206 µM in experiment [3].

Consider `COc1ccc2[nH]c(C)c(CCN(C)C)c2c1` [[2-(5-Methoxy-2-methyl-1H-indol-3-yl)-ethyl]-dimethyl-amine (C2H2O)], for which the Ki (on Vasopressin V1b receptor; in experiment [6]) was over 10 µM throughout.

As for `COC(=O)[C@@H]1C[C@H](OC(C)=O)C(=O)[C@H]2[C@@]1(C)CC[C@H]1C(=O)O[C@H](c3ccoc3)C[C@]21C` [2S,4aR,6a(R,7R,9S,10aS,10bR)-9-(acetyloxy)-2-(furan-3-yl)dodecahydro-6a,10b-dimethyl-4,10-dioxo-2H-naphtho[2,1-c]pyran-7-carboxylic acid methyl ester], the Ki in experiment [2] and in experiment [6] was over 10 µM throughout.

In the case of “CAS_82830-44-2::(2R)-1-(4-iodo-2,5-dimethoxyphenyl)propan-2-amine::DOI,(-)::US20250270173, Compound DOI”, the Ki in experiment [1] was 8.56 µM; in experiment [2] it was over 10 µM; in experiment [3] it was 9.17 µM; in experiment [4] it was 0.601 µM; on Nischarin, over 10 µM; in experiment [6], 0.578 µM.

With `CN(C)CCc1c[nH]c2ccccc12` [2-(1H-indol-3-yl)-N,N-dimethylethanamine], the Ki in experiment [1] is 5.21 µM; in experiment [2], 0.974 µM; in experiment [5], over 10 µM; in experiment [3] it was over 10 µM; at Nischarin it was 0.65 µM; in experiment [6], over 10 µM.

On to `C[C@@H]1C[C@@H](C)N1C(=O)C1C=C2c3cccc4[nH]cc(c34)C[C@H]2N(C)C1` (stereo partly specified) [rr-2b], for which the Ki (on Vasopressin V1b receptor; in experiment [2]) was over 10 µM throughout.

Turning to `COc1cc(OC)c(OC)cc1CC(C)N` (stereo not drawn) [(+/-)1-Methyl-2-(2,4,5-trimethoxy-phenyl)-ethylamine], the Ki in experiment [2] and in experiment [4] was over 10 µM in each case.

For `CCN(CC)C(=O)[C@@H]1C=C2c3cccc4[nH]cc(c34)C[C@H]2N(C)C1` [[N-methyl-3H]LSD], the Ki at Vasopressin V1b receptor was over 10 µM; in experiment [2] it was 8.68 µM.

For `CNC(C)Cc1ccc2c(c1)OCO2` (stereo unspecified) [mdma], the Ki on Vasopressin V1b receptor was over 10 µM; in experiment [2] it was over 10 µM; in experiment [5], over 10 µM; in experiment [4], 1.35 µM; at Nischarin it was 0.22 µM; in experiment [6] it was 8.25 µM.

Take `CCCN(CCC)CCc1c[nH]c2ccccc12` [dpt]: the Ki was over 10 µM on Vasopressin V1b receptor; 0.397 µM in experiment [1]; 0.443 µM in experiment [2]; over 10 µM in experiment [5]; 2.92 µM in experiment [3]; 0.514 µM in experiment [4]. Further, the Ki in experiment [6] is over 10 µM.

With `CCc1[nH]c2ccc(OC)cc2c1CCN(C)C` [2-ethyl-5-methoxy-N,N-dimethyltryptamine], the Ki (at Vasopressin V1b receptor; in experiment [6]) was over 10 µM in each case.

As for `CN(C)CCc1c[nH]c2cccc(O)c12` [4-hydroxy-N,N-dimethyltryptamine], the Ki was over 10 µM in experiment [1]; over 10 µM in experiment [2]; over 10 µM in experiment [5]; over 10 µM in experiment [3]; 0.792 µM at Nischarin; over 10 µM in experiment [6].

For the molecule `CCc1cc(OC)c(CC(C)N)cc1OC` (stereo unspecified), the Ki is 9.78 µM in experiment [1]; over 10 µM in experiment [2]; 9.56 µM in experiment [3]; 1.45 µM in experiment [4]; over 10 µM at Nischarin.

For `CCc1cc(OC)c(CCN)cc1OC` [2-(2,5-dimethoxy-4-ethylphenyl)ethylamine], the inhibition constant (Ki) is over 10 µM on Vasopressin V1b receptor; over 10 µM in experiment [2]; over 10 µM in experiment [5]; over 10 µM in experiment [3]; 0.0902 µM in experiment [4]; over 10 µM at Nischarin. This molecule showed a Ki in experiment [6] of over 10 µM.
